Reference: PMC12525867, “Aromaticity Tuning in Biaryl Monophosphines and Their Derivatives” (Molecules, 2025)
In brackets after ≈: the same amount, converted by molar mass.

Legend:
[1] = Cytotoxicity, microculture tetrazolium (MTT) test, VERO; type: cell-based; details: African green monkey, ATCC CCL-81; VERO (normal kidney cells), 24 h incubation, MTT; ± SD
Experimental: (§1) The cytotoxicity of biaryl monophosphines was tested in vitro in normal (VERO) and cancer-derived (H1HeLa) cells after 24 h of incubation using a microculture tetrazolium test. Table 2 presents the CC50 (concentrations decreasing the cellular viability by 50%) values calculated from dose–response cytotoxicity curves (Figure 4).
(§2) Cytotoxicity was evaluated using a microculture tetrazolium test as previously described, and details can be found in the Supplementary Materials. The cell lines used in the presented study were acquired from the American Type Culture Collection (ATCC); the one used for cytotoxicity testing included non-cancerous VERO (kidney; ATCC CCL-81) cells and cancer-originating H1HeLa (cervical adenocarcinoma; ATCC CRL-1958) cells. VERO cells were cultured in Dulbecco’s Modified Eagle’s Medium (DMEM; Corning, Tewksbury, MA, USA), while Eagle’s Minimum Essential Medium (MEM; Corning) was used for H1HeLa. Antibiotics (penicillin–streptomycin solution, Corning) and fetal bovine serum (FBS, Corning) were added to cell media. Cells were incubated in a 5% CO2 atmosphere at 37 °C (CO2 incubator, Panasonic Healthcare Co., Tokyo, Japan). Briefly, the monolayers of VERO or H1HeLa cells in 96-well plates (Falcon, Corning) were treated with serial dilutions of selected compounds for 24 h. After this, the medium was removed, the plates were washed with phosphate buffered saline (PBS; Corning), a 10% solution of (3-(4,5-dimethylthiazol-2-yl)-2,5-diphenyltetrazolium bromide (MTT; Sigma-Aldrich, St. Louis, MO, USA) (5 mg/mL) in FBS-free cell media was added, and the incubation continued for the next 4 h. Subsequently, the precipitated formazan crystals were dissolved, and after overnight incubation at 37 °C, the Synergy H1 Multi-Mode Microplate Reader (BioTek Instruments, Inc., Winooski, VT, USA) with Gen5 software (ver. 3.09.07; BioTek Instruments, Inc.) was used for absorbance acquisition (540 and 620 nm). Data was exported to GraphPad Prism (ver. 10) to calculate the CC50 values (50% cytotoxic concentration) from dose–response curves.
(§3) Aromaticity Tuning in Biaryl Monophosphines and Their Derivatives […]
(§4) Cell line maintenance and in vitro experiments
(§5) The cytotoxicity of selected biaryl monophosphines was evaluated in vitro towards normal VERO (ATCC, CCL-81) cells and cancer-derived cell line H1HeLa (cervical adenocarcinoma; ATCC (American Type Culture Collection) CRL-1958) using 3-(4,5-dimethylthiazol-2-yl)-2,5-diphenylte-trazolium bromide (MTT) based protocol.
(§6) Media used for in vitro culturing included Dulbecco's Modified Eagle's Medium (DMEM, Corning, Tewksbury, MA, USA) used for VERO cells and Modified Eagle Medium (MEM, Corning) used for H1HeLa. Cell media used in the experiments were supplemented with antibiotics (Penicil-lin-Streptomycin Solution, Corning) and fetal bovine serum (FBS, Corning) – 10% (cell passaging) and 2% (cell maintenance and experiments). Phosphate-buffered saline (PBS) and trypsin were bought from Corning, whereas MTT (3-(4,5-dimethylthiazol-2-yl)-2,5-diphenyltetrazolium bromide) from Sigma (Sigma-Aldrich, St. Louis, MO, USA). SDS was purchased from PanReac Applichem (Darmstadt, Germany). Incubation was carried out in a 5% CO2 atmosphere at 37°C (CO2 incubator, Panasonic Healthcare Co., Tokyo, Japan).
(§7) Concentrations of cells for passaging were as follows: VERO – 1.5*10^5 cells/mL, H1HeLa – 2*10^5 cells/mL. Routine observations of cell cultures and experiments were carried out using an in-verted microscope (CKX41, Olympus Corporation, Tokyo, Japan) equipped with a ca mera (Moti-cam 3+, Motic, Hong Kong), and the results were recorded (Motic Images Plus 2.0, Motic).
(§8) Stock solutions of biaryl monophosphines were prepared by dissolving the samples in cell culture grade DMSO (PanReac Applichem).
(§9) Evaluation of cytotoxicity
(§10) Cytotoxicity was tested using an MTT-based protocol. The cells were passaged into 96-well plates (Falcon, TC-treated, Corning) and, after overnight incubation, treated with serial dilutions of […]

[2] = test system: VERO cells; test: as above; type: cell-based; details: VERO, 24 h, microscopy
Experimental: as §1, §2, §3, §4, §5, §6, §7, §8, §9, §10

[3] = test system: M. luteus ATCC 10240; test: Antibacterial screening, broth microdilution (MIC/MBC); type: cell-based, Micrococcus luteus; details: Micrococcus luteus, ATCC10240; M. luteus ATCC 10240; read-out: MBC
Experimental: (§11) The antimicrobial activities of a series of compounds 1–5 were tested through the utilization of seven reference species, encompassing both Gram-positive (Staphylococcus aureus ATCC 29213, Staphylococcus epidermidis ATCC 12228, Micrococcus luteus ATCC 10240) and Gram-negative (Escherichia coli ATCC 25922, Klebsiella pneumoniae ATCC 13883, Proteus mirabilis ATCC 12453, Acinetobacter baumannii ATCC 19606) bacteria as model microorganisms. For this purpose, microbial suspensions were prepared in sterile saline (0.85% NaCl) with an optical density of 0.5 McFarland standard, yielding a concentration of 150 × 10^6 CFU/mL (CFU, colony-forming units). All of the stock solutions of the tested compounds were dissolved in DMSO. Amoxicillin (Glentham Life Sciences Ltd., Corsham, UK) was used as a positive control.
(§12) The MIC values of the tested compounds were determined by serial twofold dilutions of 1–5 in Mueller Hinton Broth (MHB, Biomaxima, Lublin, Poland). The range of final 1–5 concentrations used was from 0.49 up to 1000 μg/mL, and for amoxicillin from 0.12 up to 250 μg/mL in the 96-well microtiter plates (Medlab, Raszyn, Poland), starting with 98 μL MHB and 2 μL bacterial inoculum added to each well. Positive controls consisted of 100 μL MHB in each well with the tested compounds at the same concentration range. The negative controls consisted of 100 μL of MHB only. Each set of tests and controls was established with three replicates. The microtiter plates were then subjected to an incubation period of 24 h at a temperature of 35 ± 2 °C. After incubation, the optical density of the microbial growth was measured at a wavelength of 600 nm using a microplate reader, the Biotek Elx800 (BioTek Instruments, Inc., Winooski, VT, USA). The MIC value was defined as the lowest concentration of the tested compound at which there was no visible growth of the tested microorganisms. The determination of the MIC values was achieved by employing the broth microdilution method, in accordance with the recommendations of the European Committee on Antimicrobial Susceptibility Testing (EUCAST). […] Then, the MHA plates were incubated overnight at 35 ± 2 °C. […] The MIC and MBC values were reported in μg/mL, according to the EUCAST reference.

[4] = test system: K. pneumoniae ATCC 13883; test: as above; type: cell-based, Klebsiella pneumoniae; details: Klebsiella pneumoniae, ATCC13883; K. pneumoniae ATCC 13883, MHB, 24 h, 35 °C; read-out: MIC
Experimental: as §11, §12

[5] = test system: A. baumannii ATCC 19606; test: as above; type: cell-based, Acinetobacter baumannii; details: Acinetobacter baumannii, ATCC19606; A. baumannii ATCC 19606, MHB, 24 h, 35 °C; read-out: MIC
Experimental: as §11, §12

SMILES	CC50 at 24 h [1] [µg/mL]	influence on morphology of the cellular monolayer ([2]; 12.5 µg/mL)	MBC [3] [µg/mL]	MIC [4] [µg/mL]	MIC [5] [µg/mL]	influence on morphology of the cellular monolayer ([2]; 1.6 µg/mL)	influence on morphology of the cellular monolayer ([2]; 3.1 µg/mL)	influence on morphology of the cellular monolayer ([2]; 6.3 µg/mL)
COc1cc(OC)c(-c2c(P(=O)(C3CCCCC3)C3CCCCC3)c(OC)c3ccccc3c2OC)c(OC)c1 [Compound 1, Dicyclohexyl[1,4-dimethoxy-3-(2,4,6-trimethoxyphenyl)naphthalen-2-yl]phosphane oxide]	9.82 ± 0.59	some fibroblast-shaped VERO cells were noticeable	125 (≈ 221 µM)	> 1000	1000 (≈ 1760 µM)			
COc1ccccc1-c1c(P(=O)(C2CCCCC2)C2CCCCC2)c(OC)c2ccccc2c1OC [Compound 2, Dicyclohexyl[1,4-dimethoxy-3-(2-methoxyphenyl)naphthalen-2-yl]phosphane oxide]	7.78 ± 0.44	some fibroblast-shaped VERO cells were noticeable	> 1000	> 1000	500 (≈ 987 µM)			
COc1cc(OC)c(-c2c(P(=O)(C3CCCCC3)C3CCCCC3)c(O)c3ccccc3c2OC)c(OC)c1 [Compound 3, 2-(Dicyclohexylphosphoryl)-4-methoxy-3-(2,4,6-trimethoxyphenyl)naphthalen-1-ol]	3.11 ± 0.14	destroyed the cellular monolayer	> 1000	500 (≈ 905 µM)	> 1000	the cellular monolayer resembled the control cells	only a fraction of shrunken cells visible	most of the cells showed cytotoxic damage
